# US11787785B2 (NOVARTIS AG, priority 2021, dated 2023)
# Biological target: T1, WIZ protein (HiBit-WIZ fusion protein) (Homo sapiens, UniProt O95785+Q96SW2)
# T1 construct: expressed in transfected cells
# Experiment: Quantification of WIZ protein levels in HiBit tag fusion protein assay (WIZ HiBit assay in 293T cells)
# Type: cell-based
# Details: for Dmax at 25 µM / remaining activity at 25 µM: HEK-293T, 293T cells; for Dmax at 25 µM: 100 − Amax, read-out: % degradation of WIZ (100 − Amax); for remaining activity at 25 µM: DMSO-normalized, curve-fitted percentage of WIZ-HiBit remaining at 25 uM, read-out: WIZ Amax; for DC50: WIZ HiBit assay in 293T cells, 10-point, 5-fold dose response, highest concentration 25 μM, about 18 hours, read-out: WIZ AC50
# Method in brief: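 HiBit-tagged WIZ (N-terminal tag, HSVTK promoter) stably expressed single-copy in 293T cells; 10-point 1:5 compound series, top 25 μM, ~18 h at 37 °C. Lytic HiBit/LgBit luminescence read; Amax = curve-fitted % WIZ-HiBit remaining at 25 μM, DMSO normalized to 100%.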
# T1 sequence (O95785 whole entry, the tested form may be a part): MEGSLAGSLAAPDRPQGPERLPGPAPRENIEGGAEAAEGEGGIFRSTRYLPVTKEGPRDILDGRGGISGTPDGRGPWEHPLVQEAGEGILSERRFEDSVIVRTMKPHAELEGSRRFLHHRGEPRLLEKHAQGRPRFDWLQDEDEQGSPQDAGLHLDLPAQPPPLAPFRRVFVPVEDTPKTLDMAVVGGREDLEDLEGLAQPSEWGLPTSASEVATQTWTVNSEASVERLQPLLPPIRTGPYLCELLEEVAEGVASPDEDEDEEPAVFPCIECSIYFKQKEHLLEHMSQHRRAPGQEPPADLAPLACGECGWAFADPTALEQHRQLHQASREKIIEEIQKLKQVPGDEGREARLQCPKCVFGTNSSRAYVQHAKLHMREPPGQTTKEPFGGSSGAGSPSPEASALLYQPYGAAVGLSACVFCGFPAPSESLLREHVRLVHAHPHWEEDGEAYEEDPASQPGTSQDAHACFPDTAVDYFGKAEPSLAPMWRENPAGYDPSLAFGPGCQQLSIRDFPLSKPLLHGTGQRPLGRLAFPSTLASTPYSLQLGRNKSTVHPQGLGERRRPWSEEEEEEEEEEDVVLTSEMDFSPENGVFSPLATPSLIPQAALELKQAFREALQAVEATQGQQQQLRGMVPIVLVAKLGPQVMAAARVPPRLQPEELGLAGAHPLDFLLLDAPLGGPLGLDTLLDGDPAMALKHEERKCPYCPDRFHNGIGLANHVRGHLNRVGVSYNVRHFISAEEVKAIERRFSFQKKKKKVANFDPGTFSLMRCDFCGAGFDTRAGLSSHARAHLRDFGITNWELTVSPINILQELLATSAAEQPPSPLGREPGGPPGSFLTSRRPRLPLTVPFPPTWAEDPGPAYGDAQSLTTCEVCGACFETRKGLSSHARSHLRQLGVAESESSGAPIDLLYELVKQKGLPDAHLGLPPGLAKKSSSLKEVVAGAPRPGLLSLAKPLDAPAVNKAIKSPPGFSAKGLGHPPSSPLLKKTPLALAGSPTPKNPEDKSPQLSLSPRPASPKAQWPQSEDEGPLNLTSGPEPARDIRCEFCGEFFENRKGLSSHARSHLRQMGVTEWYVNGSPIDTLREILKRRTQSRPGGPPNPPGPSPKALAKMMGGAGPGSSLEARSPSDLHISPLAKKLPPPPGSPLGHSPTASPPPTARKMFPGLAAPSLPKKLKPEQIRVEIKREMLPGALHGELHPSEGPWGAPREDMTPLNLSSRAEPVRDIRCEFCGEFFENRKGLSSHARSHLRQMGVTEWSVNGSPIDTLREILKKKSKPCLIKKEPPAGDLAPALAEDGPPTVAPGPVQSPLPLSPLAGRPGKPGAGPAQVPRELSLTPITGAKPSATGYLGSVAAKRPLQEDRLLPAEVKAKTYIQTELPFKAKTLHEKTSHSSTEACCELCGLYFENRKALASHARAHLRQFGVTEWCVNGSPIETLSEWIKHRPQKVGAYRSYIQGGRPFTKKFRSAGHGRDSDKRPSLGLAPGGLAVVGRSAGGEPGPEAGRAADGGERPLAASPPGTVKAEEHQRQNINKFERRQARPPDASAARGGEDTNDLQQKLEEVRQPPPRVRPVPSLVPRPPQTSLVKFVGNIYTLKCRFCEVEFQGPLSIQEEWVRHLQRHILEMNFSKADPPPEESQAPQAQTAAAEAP
# T1 sequence (Q96SW2 whole entry, the tested form may be a part): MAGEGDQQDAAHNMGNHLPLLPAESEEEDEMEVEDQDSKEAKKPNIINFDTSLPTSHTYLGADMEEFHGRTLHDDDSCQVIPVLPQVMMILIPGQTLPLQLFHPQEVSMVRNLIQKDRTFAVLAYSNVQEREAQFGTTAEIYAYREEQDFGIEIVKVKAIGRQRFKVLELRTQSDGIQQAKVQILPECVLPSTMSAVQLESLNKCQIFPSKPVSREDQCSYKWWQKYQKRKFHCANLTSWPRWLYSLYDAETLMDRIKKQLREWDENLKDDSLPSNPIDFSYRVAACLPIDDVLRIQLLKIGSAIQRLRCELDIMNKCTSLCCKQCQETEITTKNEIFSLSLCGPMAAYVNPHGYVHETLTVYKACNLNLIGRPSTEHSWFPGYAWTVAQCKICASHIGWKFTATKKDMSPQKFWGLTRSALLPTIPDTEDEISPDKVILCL
# T1 sequence (Q16531 whole entry partner, the tested form may be a part): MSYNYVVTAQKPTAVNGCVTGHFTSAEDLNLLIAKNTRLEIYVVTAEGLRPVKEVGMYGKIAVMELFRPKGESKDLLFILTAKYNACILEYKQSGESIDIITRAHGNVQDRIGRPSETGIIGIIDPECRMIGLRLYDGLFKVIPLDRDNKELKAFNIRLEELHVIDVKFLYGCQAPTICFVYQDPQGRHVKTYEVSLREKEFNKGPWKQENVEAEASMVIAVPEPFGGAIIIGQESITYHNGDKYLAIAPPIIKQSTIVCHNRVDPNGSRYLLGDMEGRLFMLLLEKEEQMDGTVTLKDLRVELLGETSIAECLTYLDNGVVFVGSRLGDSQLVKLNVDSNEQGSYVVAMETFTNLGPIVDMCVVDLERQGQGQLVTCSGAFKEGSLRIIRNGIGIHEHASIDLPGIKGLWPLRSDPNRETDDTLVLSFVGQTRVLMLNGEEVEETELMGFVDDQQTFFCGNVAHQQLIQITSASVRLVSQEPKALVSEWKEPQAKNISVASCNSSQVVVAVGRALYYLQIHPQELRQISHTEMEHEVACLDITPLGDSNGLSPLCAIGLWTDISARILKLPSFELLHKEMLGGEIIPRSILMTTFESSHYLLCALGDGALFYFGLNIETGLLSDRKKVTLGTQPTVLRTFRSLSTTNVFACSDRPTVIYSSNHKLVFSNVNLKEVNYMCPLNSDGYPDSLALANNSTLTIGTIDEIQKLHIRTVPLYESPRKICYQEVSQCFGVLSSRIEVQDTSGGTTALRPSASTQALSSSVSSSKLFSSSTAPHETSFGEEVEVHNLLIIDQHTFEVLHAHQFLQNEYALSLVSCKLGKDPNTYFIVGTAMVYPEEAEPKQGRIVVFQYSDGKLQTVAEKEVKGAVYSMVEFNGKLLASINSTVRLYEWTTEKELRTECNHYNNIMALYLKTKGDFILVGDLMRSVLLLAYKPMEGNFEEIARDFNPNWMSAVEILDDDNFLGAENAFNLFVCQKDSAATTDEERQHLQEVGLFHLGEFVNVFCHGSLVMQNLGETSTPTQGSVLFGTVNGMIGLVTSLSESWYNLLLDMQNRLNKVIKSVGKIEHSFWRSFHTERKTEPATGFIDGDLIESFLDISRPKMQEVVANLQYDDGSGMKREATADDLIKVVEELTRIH
Compound,Dmax at 25 µM,remaining activity at 25 µM,DC50
"O=C1CCN(c2cnn3ccc(CN4CCN(Cc5cccnc5)CC4)cc23)C(=O)N1 [Example 191, 1-(5-((4-(pyridin-3-ylmethyl)piperazin-1-yl)methyl)pyrazolo[1,5-a]pyridin-3-yl)dihydropyrimidine-2,4(1H,3H)-dione]",50%,50%,0.683 µM
"O=C1CCN(c2cnn3ccc(CC4CCN(CC(=O)N5CCCCC5)CC4)cc23)C(=O)N1 [Example 52, 1-(5-((1-(2-oxo-2-(piperidin-1-yl)ethyl)piperidin-4-yl)methyl)pyrazolo[1,5-a]pyridin-3-yl)dihydropyrimidine-2,4(1H,3H)-dione]",59%,41%,0.987 µM
"COc1ccccc1CN1CCC(Cc2ccn3ncc(N4CCC(=O)NC4=O)c3c2)CC1 [Example 122, 1-(5-((1-(2-methoxybenzyl)piperidin-4-yl)methyl)pyrazolo[1,5-a]pyridin-3-yl)dihydropyrimidine-2,4(1H,3H)-dione]",55%,45%,2.58 µM
"Cn1nccc1CN1CCN(Cc2ccn3ncc(N4CCC(=O)NC4=O)c3c2)CC1 [Example 195, 1-(5-((4-((1-methyl-1H-pyrazol-5-yl)methyl)piperazin-1-yl)methyl)pyrazolo[1,5-a]pyridin-3-yl)dihydropyrimidine-2,4(1H,3H)-dione]",48%,52%,2.05 µM
"CC(C)(CC1CCOCC1)N1CCC(Cc2ccn3ncc(N4CCC(=O)NC4=O)c3c2)CC1 [Example 137, 1-(5-((1-(2-methyl-1-(tetrahydro-2H-pyran-4-yl)propan-2-yl)piperidin-4-yl)methyl)pyrazolo[1,5-a]pyridin-3-yl)dihydropyrimidine-2,4(1H,3H)-dione]",77%,23%,0.121 µM
"COc1cn(-c2cnn3ccc(C[C@@H]4CCN(CC5CCC(F)(F)CC5)[C@@H](C)C4)cc23)c(=O)[nH]c1=O [Example 353, 1-(5-(((2S,4R)-1-((4,4-difluorocyclohexyl)methyl)-2-methylpiperidin-4-yl)methyl)pyrazolo[1,5-a]pyridin-3-yl)-5-methoxypyrimidine-2,4(1H,3H)-dione]",70%,30%,9.1 µM
"O=C1CCN(c2cnn3ccc(CC4CCN(Cc5cc(F)cc(F)c5)CC4)cc23)C(=O)N1 [Example 44, 1-(5-((1-(3,5-difluorobenzyl)piperidin-4-yl)methyl)pyrazolo[1,5-a]pyridin-3-yl)dihydropyrimidine-2,4(1H,3H)-dione]",70%,30%,0.043 µM
"C[C@H]1CN(CC2CC(F)(F)C2)CCN1Cc1ccn2ncc(N3CCC(=O)NC3=O)c2c1 [Example 226, (S)-1-(5-((4-((3,3-difluorocyclobutyl)methyl)-2-methylpiperazin-1-yl)methyl)pyrazolo[1,5-a]pyridin-3-yl)dihydropyrimidine-2,4(1H,3H)-dione]",45%,55%,1.23 µM
O=C1CCN(c2cnn3ccc(CC4CCN(C(=O)c5ccccc5)CC4)cc23)C(=O)N1 [Example 101],33%,67%,> 25 µM
"O=C1CCN(c2cnn3ccc(CC4C[C@H]5CC[C@@H](C4)N5CC4CCCCC4)cc23)C(=O)N1 (stereo partly drawn) [Example 66, 1-(5-(((1R,5S)-8-(cyclohexylmethyl)-8-azabicyclo[3.2.1]octan-3-yl)methyl)pyrazolo[1,5-a]pyridin-3-yl)dihydropyrimidine-2,4(1H,3H)-dione]",72%,28%,0.195 µM
CC(C)CN1CCN(Cc2ccn3ncc(N4CCC(=O)NC4=O)c3c2)C[C@H]1C [Example 216],65%,35%,0.089 µM
"CC(C)(F)CN1CCC(Cc2ccn3ncc(N4CCC(=O)NC4=O)c3c2)CC1 [Example 39, 1-(5-((1-(2-fluoro-2-methylpropyl)piperidin-4-yl)methyl)pyrazolo[1,5-a]pyridin-3-yl)dihydropyrimidine-2,4(1H,3H)-dione]",71%,29%,0.083 µM
"O=C1CCN(c2cnn3ccc(CN4CCN(CC5CCCCC5)CC4=O)cc23)C(=O)N1 [Example 255, 1-(5-((4-(cyclohexylmethyl)-2-oxopiperazin-1-yl)methyl)pyrazolo[1,5-a]pyridin-3-yl)dihydropyrimidine-2,4(1H,3H)-dione]",0%,100%,> 25 µM
Cc1ccccc1CN1CCN(Cc2ccn3ncc(N4CCC(=O)NC4=O)c3c2)CC1 [Example 167],57%,43%,0.286 µM
O=C1CCN(c2cnn3ccc(CC4CCN(S(=O)(=O)CC5CC5)CC4)cc23)C(=O)N1 [Example 84],87%,13%,0.055 µM

# These reach a lower DC50. Values come first.
Dmax at 25 µM,remaining activity at 25 µM,DC50,Compound
61%,39%,0.034 µM,"O=C1CCN(c2cnn3ccc(CC4CCN(Cc5nccs5)CC4)cc23)C(=O)N1 [Example 60, 1-(5-((1-(thiazol-2-ylmethyl)piperidin-4-yl)methyl)pyrazolo[1,5-a]pyridin-3-yl)dihydropyrimidine-2,4(1H,3H)-dione]"
66%,34%,0.016 µM,"O=C1CCN(c2cnn3ccc(CC4CCN(CC(F)(F)C5CCCCC5)CC4)cc23)C(=O)N1 [Example 112, 1-(5-((1-(2-cyclohexyl-2,2-difluoroethyl)piperidin-4-yl)methyl)pyrazolo[1,5-a]pyridin-3-yl)dihydropyrimidine-2,4(1H,3H)-dione]"
90%,10%,0.005 µM,C[C@H]1C[C@H](Cc2ccn3ncc(N4CCC(=O)NC4=O)c3c2)CCN1CC1CCCCCC1 [Example 147]
66%,34%,0.039 µM,"O=C1CCN(c2cnn3ccc(CC4CCN(Cc5cc(F)cc(C(F)(F)F)c5)CC4)cc23)C(=O)N1 [Example 51, 1-(5-((1-(3-fluoro-5-(trifluoromethyl)benzyl)piperidin-4-yl)methyl)pyrazolo[1,5-a]pyridin-3-yl)dihydropyrimidine-2,4(1H,3H)-dione]"
90%,10%,0.001 µM,O=C1CCN(c2cnn3ccc(CC4CCN(CC56CC7CC(CC(C7)C5)C6)CC4)cc23)C(=O)N1 [Example 117]
89%,11%,0.024 µM,"C[C@H]1C[C@H](Cc2ccn3ncc(-n4ccc(=O)[nH]c4=O)c3c2)CCN1CC1CCC(F)(F)CC1 [Example 268, 1-(5-(((2S,4R)-1-((4,4-difluorocyclohexyl)methyl)-2-methylpiperidin-4-yl)methyl)pyrazolo[1,5-a]pyridin-3-yl)pyrimidine-2,4(1H,3H)-dione]"
84%,16%,0.019 µM,"O=C1CCN(c2cnn3ccc(CC4CCN(CCC5CCC5)CC4)cc23)C(=O)N1 [Example 13, 1-(5-((1-(2-cyclobutylethyl)piperidin-4yl)methyl)pyrazolo[1,5-a]pyridin-3-yl)dihydropyrimidine-2,4(1H,3H)-dione]"
